Experiment: Intratracheal bolus instillation of alpha-tocopherol solution in F6H8
Format: in vivo
Details: pigs
Excerpt: In the clinical experiment on pigs some of that solution was intratracheally instilled bolus-wise.

## Cc1c(C)c2c(c(C)c1O)CC[C@@](C)(CCC[C@H](C)CCC[C@H](C)CCCC(C)C)O2 [alpha-tocopherol]
  location of the drug after exhaling the SFA: remained in the alveolar region
  transfer of the drug into the bloodstream: no transfer of the drug into the bloodstream was detected

Source: US8986738B2, “Inhalative and instillative use of semifluorinated alkanes as an active substance carrier in the intrapulmonary area” (NOVALIQ GmbH, priority 2008, dated 2015)
